In one series the test system is H3122 cells. The series is described as follows: Cytotoxicity in non-small cell lung cancer cell line H3122 (SRB). It counts as cell-based, human. As to conditions: H3122 cells, three days, SRB. The procedure: Particularly, 4,000 H3122 cells containing ALK enzyme were distributed in each well of a 96 well plate together with 100 μl of DMEM (Dulbecco's Modified Eagle's Medium). One day later, the compound of the present invention was added to each well at different concentrations of […]. DMSO (dimethylsulfoxide) was added to the well that was not loaded with the compound by the same amount as the compound. Three days after the addition of the compound, DMEM was eliminated. 10% TCA (trichloroacetic acid) was added to fix the cells. The wells were washed with running water three times and the live cells were stained with SRB solution (1 sulphorodamine B). Then, OD was measured to calculate the population of the live cells.

The subject of the next series is H2228 cells. As to the kind of experiment: cells. The conditions noted are these: Homo sapiens, NCI-H2228, 72 h, read-out: Cytotoxicity H2228 (GI50 μM), H2228 cells, three days, SRB.

Bounds are passed on as bounds.

`COc1ccc(C2(CN)CCCC2)cc1Nc1ncc(Cl)c(Nc2ccccc2S(=O)(=O)C(C)C)n1` [Example 1, N2-(5-(1-(aminomethyl)cyclopentyl)-2-methoxyphenyl)-5-chloro-N4-(2-(isopropylsulfonyl)phenyl)pyrimidine-2,4-diamine]: the GI50 was determined as 3.06 µM with H3122 cells (Homo sapiens, NCI-H3122, 72 h) and 2.1 µM in the series on H2228 cells. As for `COc1ccc(C2(CN)CCCCC2)cc1Nc1ncc(Cl)c(Nc2ccccc2S(=O)(=O)C(C)C)n1` [Example 2, N2-(5-(1-(aminomethyl)cyclohexyl)-2-methoxyphenyl)-5-chloro-N4-(2-(isopropylsulfonyl)phenyl)pyrimidine-2,4-diamine], the 50% growth inhibitory concentration (GI50) worked out at 2.63 µM in the series on H3122 cells (Homo sapiens, NCI-H3122, 72 h) and 3.77 µM in the series with H2228 cells. `COc1ccc(CC2(N)CC2)cc1Nc1ncc(Cl)c(Nc2ccccc2S(=O)(=O)C(C)C)n1` [Example 3, N2-(5-((1-aminocyclopropyl)methyl)-2-methoxyphenyl)-5-chloro-N4-(2-(isopropylsulfonyl)phenyl)pyrimidine-2,4-diamine]: the GI50 in the series on H3122 cells (Homo sapiens, NCI-H3122, 72 h) amounted to 0.77 µM; in the series with H2228 cells it was 1.21 µM. `COc1ccc(CCN)cc1Nc1ncc(Cl)c(Nc2ccccc2S(=O)(=O)C(C)C)n1` [Example 4, N2-(5-(2-aminoethyl)-2-methoxyphenyl)-5-chloro-N4-(2-(isopropylsulfonyl)phenyl) pyrimidine-2,4-diamine]: the GI50 was 0.08 µM in the series with H3122 cells and not above 0.1 µM with H3122 cells (Homo sapiens, NCI-H3122, 72 h). On to `COc1ccc(C2(CN3CCCCC3)CCCC2)cc1Nc1ncc(Cl)c(Nc2ccccc2S(=O)(=O)C(C)C)n1` [Example 5], for which the figures for the GI50 in the series on H3122 cells and in the series on H2228 cells were 10 µM and 7.8 µM, respectively. For the compound `COc1ccc(C2(CN3CCOCC3)CCCC2)cc1Nc1ncc(Cl)c(Nc2ccccc2S(=O)(=O)C(C)C)n1` [Example 6, 5-chloro-N4-(2-(isopropylsulfonyl)phenyl)-N2-(2-methoxy-5-(1-(morpholinomethyl)cyclopentyl)phenyl)pyrimidine-2,4-diamine], the GI50 with H3122 cells and in the series with H2228 cells was 10 µM throughout.

In the case of `COc1ccc(CCNC(C)=O)cc1Nc1ncc(Cl)c(Nc2ccccc2S(=O)(=O)C(C)C)n1` [Example 7, N-(3-(5-chloro-4-(2-(isopropylsulfonyl)phenylamino)pyrimidine-2-ylamino)-4-methoxyphenethyl)acetamide], the GI50 in the series on H3122 cells (Homo sapiens, NCI-H3122, 72 h) was 0.79 µM; in the series with H2228 cells, 0.8 µM. As to `COc1ccc(CCNS(C)(=O)=O)cc1Nc1ncc(Cl)c(Nc2ccccc2S(=O)(=O)C(C)C)n1` [Example 8, N-(3-(5-chloro-4-(2-(isopropylsulfonyl)phenylamino)pyrimidine-2-ylamino)-4-methoxyphenethyl) methanesulfonamide], the 50% growth inhibitory concentration (GI50) with H3122 cells (Homo sapiens, NCI-H3122, 72 h) was 1.9 µM; in the series on H2228 cells, 0.88 µM.

Take `COc1ccc(CCN(C)C)cc1Nc1ncc(Cl)c(Nc2ccccc2S(=O)(=O)C(C)C)n1` [Example 9, 5-chloro-N2-(5-(2-(dimethylamino)ethyl)-2-methoxyphenyl)-N4-(2-(isopropylsulfonyl)phenyl)pyrimidine-2,4-diamine]: the GI50 in the series with H3122 cells (Homo sapiens, NCI-H3122, 72 h) was found to be 0.22 µM; with H2228 cells, 0.23 µM. `CNCCc1ccc(OC)c(Nc2ncc(Cl)c(Nc3ccccc3S(=O)(=O)C(C)C)n2)c1` [Example 10, 5-chloro-N4-(2-(isopropylsulfonyl)phenyl)-N2-(2-methoxy-5-(2-(methylamino)ethyl)phenyl)pyrimidine-2,4-diamine]: the GI50 in the series with H3122 cells (Homo sapiens, NCI-H3122, 72 h) worked out at 1.2 µM; in the series with H2228 cells, 1.8 µM. On to `COc1ccc(CCNCc2ccccc2)cc1Nc1ncc(Cl)c(Nc2ccccc2S(=O)(=O)C(C)C)n1` [Example 11, N2-(5-(2-(benzylamino)ethyl)-2-methoxyphenyl)-5-chloro-N4-(2-(isopropylsulfonyl)phenyl)pyrimidine-2,4-diamine], for which the 50% growth inhibitory concentration (GI50) in the series on H3122 cells (Homo sapiens, NCI-H3122, 72 h) was 1.4 µM; in the series on H2228 cells it was 1.4 µM.

Turning to `COc1ccc(CCNC(=O)Cc2ccccc2)cc1Nc1ncc(Cl)c(Nc2ccccc2S(=O)(=O)C(C)C)n1` [Example 12, N-(3-(5-chloro-4-(2-(isopropylsulfonyl)phenylamino)pyrimidine-2-ylamino)-4-methoxyphenethyl)-2-phenylacetamide], the GI50 was 4.7 µM with H3122 cells (Homo sapiens, NCI-H3122, 72 h) and 1.1 µM with H2228 cells. On to `COc1ccc(CCCNC(=O)C(F)(F)F)cc1Nc1ncc(Cl)c(Nc2ccccc2S(=O)(=O)C(C)C)n1` [Example 40, N-(3-(3-((5-chloro-4-((2-(isopropylsulfonyl)phenyl)amino)pyrimidine-2-yl)amino)-4-methoxyphenyl)propyl)-2,2,2-trifluoroacetamide], for which, in the series with H3122 cells (Homo sapiens, NCI-H3122, 72 h), the GI50 came out at 0.33 µM.

In turn, `COc1ccc(CCCN)cc1Nc1ncc(Cl)c(Nc2ccccc2S(=O)(=O)C(C)C)n1` [Example 41, N2-(5-(3-aminopropyl)-2-methoxyphenyl)-5-chloro-N4-(2-(isopropylsulfonyl)phenyl)pyrimidine-2,4-diamine] had a GI50 in the series on H3122 cells (Homo sapiens, NCI-H3122, 72 h) of 0.19 µM. Still for that read-out and setting: in the case of `COc1ccc(CC(N)=O)cc1Nc1ncc(Cl)c(Nc2ccccc2S(=O)(=O)C(C)C)n1` [Example 42, 2-(3-((5-chloro-4-((2-(isopropylsulfonyl)phenyl)amino)pyrimidine-2-yl)amino)-4-methoxyphenyl)acetamide] it was 0.15 µM; in that of `CCOCCOC(=O)Cc1ccc(OC)c(Nc2ncc(Cl)c(Nc3ccccc3S(=O)(=O)C(C)C)n2)c1` [Example 43, 2-ethoxyethyl 2-(3-((5-chloro-4-((2-(isopropylsulfonyl)phenyl)amino)pyrimidine-2-yl)amino)-4-methoxyphenyl)acetate], more than 10 µM.

In the series with H3122 cells (Homo sapiens, NCI-H3122, 72 h), `COc1ccc(CC(=O)O)cc1Nc1ncc(Cl)c(Nc2ccccc2S(=O)(=O)C(C)C)n1` [Example 44, 2-(3-((5-chloro-4-((2-(isopropylsulfonyl)phenyl)amino)pyrimidine-2-yl)amino)-4-methoxyphenyl)acetic acid] had a GI50 of 1 µM. Turning to `COc1ccc(CC(=O)N2CCOCC2)cc1Nc1ncc(Cl)c(Nc2ccccc2S(=O)(=O)C(C)C)n1` [Example 45, 2-(3-((5-chloro-4-((2-(isopropylsulfonyl)phenyl)amino)pyrimidine-2-yl)amino)-4-methoxyphenyl)-1-morpholinoethane-1-one], in the series on H3122 cells, halving of growth (GI50) required 10 µM. Turning to `COc1ccc(CC(=O)N2CCCCC2)cc1Nc1ncc(Cl)c(Nc2ccccc2S(=O)(=O)C(C)C)n1` [Example 46, 2-(3-((5-chloro-4-((2-(isopropylsulfonyl)phenyl)amino)pyrimidine-2-yl)amino)-4-methoxyphenyl)-1-(piperidine-1-yl)ethane-1-one], growth with H3122 cells was halved (GI50) at 10 µM. In the series on H3122 cells (Homo sapiens, NCI-H3122, 72 h), `COc1ccc(CC(=O)N2CCNCC2)cc1Nc1ncc(Cl)c(Nc2ccccc2S(=O)(=O)C(C)C)n1` [Example 48, 2-(3-((5-chloro-4-((2-(isopropylsulfonyl)phenyl)amino)pyrimidine-2-yl)amino)-4-methoxyphenyl)-1-(piperazine-1-yl) ethane-1-one] gave a GI50 of 0.58 µM. Compound `COc1ccc(CC(=O)Nc2ccncc2)cc1Nc1ncc(Cl)c(Nc2ccccc2S(=O)(=O)C(C)C)n1` [Example 49, 2-(3-((5-chloro-4-((2-(isopropylsulfonyl)phenyl)amino)pyrimidine-2-yl)amino)-4-methoxyphenyl)-N-(pyridine-4-yl)acetamide] yielded a GI50 with H3122 cells of 10 µM. `COc1ccc(CC(=O)Nc2ccccc2)cc1Nc1ncc(Cl)c(Nc2ccccc2S(=O)(=O)C(C)C)n1` [Example 50, 2-(3-((5-chloro-4-((2-(isopropylsulfonyl)phenyl)amino)pyrimidine-2-yl)amino)-4-methoxyphenyl)-N-phenylacetamide] registered a GI50 in the series with H3122 cells of 10 µM. `COc1cc(Br)c(CCN)cc1Nc1ncc(Cl)c(Nc2ccccc2S(=O)(=O)C(C)C)n1` [Example 51, N2-(5-(2-aminoethyl)-4-bromo-2-methoxyphenyl)-5-chloro-N4-(2-(isopropylsulfonyl)phenyl)pyrimidine-2,4-diamine] had a GI50 with H3122 cells (Homo sapiens, NCI-H3122, 72 h) of 1.1 µM.

The compound `COc1cc(-c2cnn(C)c2)c(CCN)cc1Nc1ncc(Cl)c(Nc2ccccc2S(=O)(=O)C(C)C)n1` [Example 52, N2-(5-(2-aminoethyl)-2-methoxy-4-(1-methyl-1H-pyrazole-4-yl)phenyl)-5-chloro-N4-(2-(isopropylsulfonyl)phenyl)pyrimidine-2,4-diamine] registered a concentration for 50% growth inhibition (GI50) in the series with H3122 cells (Homo sapiens, NCI-H3122, 72 h) of 0.096 µM. Regarding `COc1cc(C(C)(C)N)c(C)cc1Nc1ncc(Cl)c(Nc2ccccc2S(=O)(=O)C(C)C)n1` [Example 57, N2-(4-(2-aminopropane-2-yl)-2-methoxy-5-methylphenyl)-5-chloro-N4-(2-(isopropylsulfonyl)phenyl)pyrimidine-2,4-diamine], in the series on H3122 cells (Homo sapiens, NCI-H3122, 72 h), it took 0.012 µM to inhibit growth by half (GI50). `COc1cc(CN)c(C)cc1Nc1ncc(Cl)c(Nc2ccccc2S(=O)(=O)C(C)C)n1` [Example 68, N2-(4-(aminomethyl)-2-methoxy-5-methylphenyl)-5-chloro-N4-(2-(isopropylsulfonyl)phenyl)pyrimidine-2,4-diamine]: in the series with H3122 cells (Homo sapiens, NCI-H3122, 72 h), the GI50 was determined as 0.11 µM. As to `COc1cc(C[N+](C)(C)C)c(C)cc1Nc1ncc(Cl)c(Nc2ccccc2S(=O)(=O)C(C)C)n1` [Example 69, 1-(4-((5-chloro-4-((2-(isopropylsulfonyl)phenyl)amino)pyrimidine-2-yl)amino)-5-methoxy-2-methylphenyl)-N,N,N-trimethylmethanealuminum iodide], in the series with H3122 cells (Homo sapiens, NCI-H3122, 72 h), the concentration for 50% growth inhibition (GI50) is 1.7 µM. The same measure, in the same setting: in the case of `COc1ccc(CCN2CCNCC2)cc1Nc1ncc(Cl)c(Nc2ccccc2S(=O)(=O)C(C)C)n1` [Example 73, 5-chloro-N4-(2-(isopropylsulfonyl)phenyl)-N2-(2-methoxy-5-(2-(piperazine-1-yl)ethyl)phenyl)pyrimidine-2,4-diamine] it was 0.16 µM.

One may read the GI50 as the concentration that inhibits growth by half.

Source of the values: patent US10100019B2.
